{"source": "patent US9889135B2", "about": "“Companion diagnostic for CDK4 inhibitors” (Memorial Sloan-Kettering Cancer Center, priority 2013, dated 2018)", "key": {"[1]": {"system": "HAUSP and MDM2 interaction in LS8817, LS0082, LS7785-1 and LS7785-10 cells", "test": "co-immunoprecipitation of HAUSP and MDM2", "assay_type": "cell-based, human", "settings": "two days PD0332991, then 5 μM MG132 for 2 hours; detected in untreated cells", "method": "FIG. 25A-D. Turnover of MDM2 is regulated post-translationally. […] Extracts were prepared and MDM2 was immunoprecipitated and the presence of HAUSP and MDM2 in the precipitates were determined by immunoblot. IgG was used as a non-specific antibody control for the immunoprecipitation. […] Tubulin is a loading control. HAUSP levels were reduced with shRNA in the indicated cells lines and the effect on protein expression (C) and the accumulation of senescence-associated (3-galactosidase positive cells measured (D). The mean and standard deviation was compiled from at least two independent experiments with each cell line and a representative immunoblot is shown."}, "[2]": {"system": "MDM2 in WD/DDLS tumor biopsies", "test": "MDM2 in pre- and post-treatment patient biopsies by immunoblot", "assay_type": "in vivo, human", "method": "FIG. 7. […] GAPDH serves as a loading control.\nAntibodies against CDK4 (3F121), MDM2 (N-20 and SMP14), total RB (IF8), Cyclin A (H432), p16 (C20), p53 (DO-1 and Bp53-12), tubulin (C20) and FLAG (M2) were obtained from Santa Cruz Biotechnology, phospho-Rb 780 (#9307) from Cell Signalling, and ARF (3642) from Abeam, HAUSP (A300-033A) from Bethyl Laboratories. Treated cells were lysed with buffer composed of 50 mM Tris-HCl, pH7.4, 250 mM NaCl, 5 mM EDTA, 0.5% NP40, 2 mM PMSF, and supplemented with protease inhibitors. Eighty micrograms of protein were resolved by SDS-PAGE and transferred to PVDF membranes. Membranes were incubated overnight with antibodies (1:1000). […] Pre-treatment biopsies were collected within two weeks of the first dose and post-treatment biopsies collected after at last three weeks of treatment. […] Tumor response was assessed by reference radiologist by CT scan every six weeks for 36 weeks, and every 12 weeks thereafter.\nExtracts were prepared in 50 mM Tris-HCl, pH7.4, 150 mM NaCl, 1 mM EDTA, 1% NP40, 0.25% sodium deoxycholate and supplemented with mini-protease inhibitor cocktail (Roche). Tumor response was assessed by reference radiologist by CT scan every six weeks for 36 weeks, and every 12 weeks thereafter."}, "[3]": {"system": "MDM2 in LS8817 and LS0082 cells", "test": "MDM2 levels by immunoblot, responder cells", "assay_type": "cell-based, human", "settings": "two days", "method": "(§1) (A) Immunoblot. […] Tubulin was a loading control. (B) Immunoblot.\n(§2) Antibodies against CDK4 (3F121), MDM2 (N-20 and SMP14), total RB (IF8), Cyclin A (H432), p16 (C20), p53 (DO-1 and Bp53-12), tubulin (C20) and FLAG (M2) were obtained from Santa Cruz Biotechnology, phospho-Rb 780 (#9307) from Cell Signalling, and ARF (3642) from Abeam, HAUSP (A300-033A) from Bethyl Laboratories. Treated cells were lysed with buffer composed of 50 mM Tris-HCl, pH7.4, 250 mM NaCl, 5 mM EDTA, 0.5% NP40, 2 mM PMSF, and supplemented with protease inhibitors. Eighty micrograms of protein were resolved by SDS-PAGE and transferred to PVDF membranes. Membranes were incubated overnight with antibodies (1:1000). […] Pre-treatment biopsies were collected within two weeks of the first dose and post-treatment biopsies collected after at last three weeks of treatment. Extracts were prepared in 50 mM Tris-HCl, pH7.4, 150 mM NaCl, 1 mM EDTA, 1% NP40, 0.25% sodium deoxycholate and supplemented with mini-protease inhibitor cocktail (Roche). Tumor response was assessed by reference radiologist by CT scan every six weeks for 36 weeks, and every 12 weeks thereafter."}, "[4]": {"system": "MDM2 in LS8107 and LS7785-1 cells", "test": "MDM2 levels by immunoblot, non-responder cells", "assay_type": "cell-based, human", "settings": "non-responders LS8107 and LS7785-1; two days", "method": "as §1, §2"}, "[5]": {"system": "normal and tumor cells", "settings": "both normal and tumor cells; cited from earlier work"}, "[6]": {"system": "WD/DDLS cell lines", "test": "annexin V staining (apoptosis)", "assay_type": "cell-based, human", "settings": "PD0332991, 48 hours, any of the seven cell lines", "method": "FIG. 1A-C. […] Mean percentage of BrdU incorporation or annexin V+/7-AAD− cells was calculated from three or more independent experiments. Error bars represent standard deviation (*p<0.05).\nFIG. 13A-B. Nutlin-3a induces apoptosis in all the liposarcoma cell lines. The indicated cell lines were treated with nutlin-3a or vehicle control and extracts were prepared for immunoblotting (A) or annexin V staining (B) forty-eight hours after treatment. Mean percentage of annexin V+/7-AAD− cells was calculated from three or more independent experiments. Error bars represent standard deviation (*p<0.05).\n(§3) Cells were stained with BrdU (20 μM for two hours) or annexin V as previously described (22, 48). […] was determined by staining with propidium iodine and FACS analyses (49)."}, "[7]": {"system": "γH2AX and 53BP1 foci in LS8817 cells", "test": "DNA damage foci", "assay_type": "cell-based, human", "from_the_text": "(§4) Extracts from control and irradiated mouse embryo fibroblasts were included as a control. Tubulin is a control. (B) γH2AX and 53BP1 foci were scored in the indicated cell lines. As per (Doll et al., 2009; […] et al., 2012) having a cell with greater than 10 foci (white) is considered positive for DNA damage. As expected for WD/DDLS cell lines the basal level of DNA damage was quite high."}, "[8]": {"system": "γH2AX and 53BP1 foci in LS8107 and LS7785-10 cells", "test": "DNA damage foci", "assay_type": "cell-based, human", "from_the_text": "as §4"}, "[9]": {"system": "T98G glioma cells", "test": "PD-induced growth arrest (BrdU incorporation)", "assay_type": "cell-based", "settings": "BrdU incorporation 7 days after treatment", "method": "(§5) Cell lines were maintained in DMEM High glucose (HG) supplemented with 10% heat-inactivated fetal bovine serum. Glioma cell lines, DKMG, SNB19, DBTRG-05MG, and […], were maintained in DMEM HG supplemented with 10% fetal bovine serum and 2 mM glutamine. The MCF7 breast cancer cell line was maintained in RPMI-1640 media supplemented with 10% fetal bovine serum and 2 mM glutamine.\n(§6) shRNA were delivered in the pLKO.1 vector (Sigma) and infected cells selected using puromycin (1 μg/ml); infection with a virus carrying a scramble control ([…]) was used as a control in all experiments utilizing shRNA. Cell lines were treated with […] or shRNA directed against CDK4 ([…] (SEQ ID NO:4)), MDM2 (M376, […] (SEQ ID NO:5); M380, […] (SEQ ID NO:6)), HAUSP (4057, […] (SEQ ID NO:7); 845, […] (SEQ ID NO:8)) or CDK6 ([…] (SEQ ID NO:9)) for 48 hours to 7 days and stained with BrdU (20 μM for two hours) or annexin V as previously described (22, 48). […] was determined by staining with propidium iodine and FACS analyses (49).\nas §3"}, "[10]": {"system": "SNB19 glioma cells", "test": "PD-induced growth arrest (BrdU incorporation)", "assay_type": "cell-based", "settings": "BrdU incorporation 7 days after treatment", "method": "as §5, §6, §3"}, "[11]": {"system": "DBTRG-05MG glioma cells", "test": "PD-induced growth arrest (BrdU incorporation)", "assay_type": "cell-based", "settings": "BrdU incorporation 7 days after treatment", "method": "as §5, §6, §3"}}, "data": [{"smiles": "CC(=O)c1c(C)c2cnc(Nc3ccc(N4CCNCC4)cn3)nc2n(C2CCCC2)c1=O", "note": "[PD0332991]", "values": [{"measurement": "interaction of HAUSP and MDM2 detected by co-immunoprecipitation", "setting": "[1]", "result": "not in any of the cells treated"}, {"measurement": "MDM2 levels in post- versus pre-treatment biopsies", "setting": "[2]; patients 1, 4, 7, and 8", "result": "reduced"}, {"measurement": "MDM2 levels in post- versus pre-treatment biopsies", "setting": "[2]; patients 2, 3, and 9", "result": "unaffected"}, {"measurement": "MDM2 reduction", "setting": "[3]", "result": "approximately three-fold"}, {"measurement": "MDM2 reduction", "setting": "[4]", "result": "not"}, {"measurement": "cell cycle arrest", "setting": "[5]", "result": "G1 arrest"}, {"measurement": "annexin V staining, a marker of apoptosis", "setting": "[6]", "result": "did not induce a significant change"}, {"measurement": "number of γH2Ax and 5313P1 foci", "setting": "[7]", "result": "reduced"}, {"measurement": "number of foci", "setting": "[8]", "result": "largely unaffected"}, {"measurement": "PD-induced growth arrest", "setting": "[9]", "result": "+ (BrdU incorporation is reduced at least 8X 7 days after treatment with the drug)"}, {"measurement": "PD-induced growth arrest", "setting": "[10]", "result": "+ (BrdU incorporation is reduced at least 8X 7 days after treatment with the drug)"}, {"measurement": "PD-induced growth arrest", "setting": "[11]", "result": "+ (BrdU incorporation is reduced at least 8X 7 days after treatment with the drug)"}]}]}
